Assay results reported in PMC7343746, “(2S, 4R)-4-[^18F]Fluoroglutamine for In vivo PET Imaging of Glioma Xenografts in Mice: an Evaluation of Multiple Pharmacokinetic Models” (Molecular Imaging and Biology, 2020).

Tests used:
Type in all cases: in vivo, BALB/cOlaHsd-Foxn1^nu mouse
[1] = test system: patient-derived BT3 glioma cells; test: Ex vivo autoradiography of brain cryosections, orthotopic glioma; conditions: for Autoradiography TBRmean: n = 12 brain sections
Text: See Suppl. Materials in ESM for detailed descriptions of biodistribution, stability, cryosectioning, autoradiography, and histology.

[2] = test system: patient-derived BT3 glioma cells; test: Patlak plot (irreversible uptake model), orthotopic model; conditions: for Patlak Ic (AB) y intercept: AB input; for Patlak Ic (PC) y intercept: PC input
Description: (§1) Image analysis was performed using CARIMAS software published and freely distributed by the Turku PET Center (http://turkupetcentre.fi/carimas/). CT scans were used as rough anatomical reference while tumor regions of interest (ROI) were hand-drawn based upon observed spikes of radioactivity in the PET images at locations correlating with recorded tumor grafts. Control muscle ROIs were drawn on the side opposite to the tumor in the leg flank muscle (based on CT) while the blood ROI was drawn based upon heart anatomical location and observed PET image radioactivity spike during the initial 20 s of imaging in the left ventricle. Standardized uptake values (SUV) were calculated with respect to ROI volume, mean and max tumor radioactivity, total injected radioactivity dose (corrected for tail, cannula, and syringe residual radioactivity), and animal weight, and were additionally presented as tumor-to-background ratio (TBR, tumor-to-healthy brain region for intracranial gliomas and tumor-to-muscle for subcutaneous gliomas) as defined by recent glioma research literature standards. Mean and maximum TBR values were reported as ROI radioactivity per volume divided by mean background radioactivity per volume. The blood radioactivity SUV and gender-specific metabolite-corrected blood radioactivity SUV were then applied to multiple pharmacokinetic models to characterize the flux of the tracer (further described in the “Modeling” section).
(§2) Using the heart’s left ventricle ROI from the PET data as an uncorrected radioactivity level input and the bioavailable parent-tracer fraction (results: Eqs. 3 and 4 applied to the uncorrected input) as the corrected input, multiple models were investigated to characterize the tissue uptake dynamics. Two-compartment modeling and Logan, Patlak, and Yokoi plots were used to separately model the pharmacokinetics for the gliomas (both subcutaneous and orthotopic loci) and their respective control tissues (healthy muscle and healthy brain, respectively). Where indicated, means plus/minus standard deviations are reported. Difference in parameters for uncorrected versus correct and target tissue versus their respective control regions were tested with students’ paired t tests with P values lower than 0.05 being considered significant.

[3] = test system: patient-derived BT3 glioma cells; test: Yokoi plot, orthotopic model; conditions: for Yokoi K1 (AB) plasma to tissue transport rate / Yokoi K1/k2 (AB) binding potential / Yokoi k2 (AB) tissue to plasma transport rate: AB input; for Yokoi K1 (PC) plasma to tissue transport rate / Yokoi K1/k2 (PC) binding potential / Yokoi k2 (PC) tissue to plasma transport rate: PC input
Description: as §1, §2

[4] = test system: patient-derived BT3 glioma cells; test: 2-Compartment model, orthotopic model
Description: as §1, §2

[5] = Subject A brain (control), arterial blood input
[6] = Subject A brain (control), plasma-corrected input
[7] = Subject A glioma max., arterial blood input
[8] = Subject A glioma max., plasma-corrected input
[9] = Subject A o.t. glioma, arterial blood input
[10] = Subject A o.t. glioma, plasma-corrected input
[11] = Subject B brain (control), arterial blood input
[12] = Subject B brain (control), plasma-corrected input
[13] = Subject B glioma max., arterial blood input
[14] = Subject B glioma max., plasma-corrected input
[15] = Subject B o.t. glioma, arterial blood input
[16] = Subject B o.t. glioma, plasma-corrected input

## NC(=O)[C@H]([18F])C[C@H](N)C(=O)O [[^18F]FGln, (2S, 4R)-4-[^18F]fluoroglutamine]
[1]; Subject A
  Autoradiography TBRmean: 8.9 ± 1.1 (range 7.2–10.5)
[1]; Subject B
  Autoradiography TBRmean: 9.9 ± 0.7 (range 8.9–11.0)
[1]; Subject C
  Autoradiography TBRmean: 7.8 ± 0.4 (range 7.3–8.4)
[1]; n = 3 subjects, 36 sections
  Autoradiography TBR, average: 8.9 ± 1.1
[2]; Subject A brain (control)
  Patlak Ic (AB) y intercept: 0.1654
  Patlak Ic (PC) y intercept: 0.2100
[2]; Subject A glioma max.
  Patlak Ic (AB) y intercept: 1.07
  Patlak Ic (PC) y intercept: 1.4536
[2]; Subject A o.t. glioma
  Patlak Ic (AB) y intercept: 0.7386
  Patlak Ic (PC) y intercept: 0.9480
[2]; Subject B brain (control)
  Patlak Ic (AB) y intercept: 0.1316
  Patlak Ic (PC) y intercept: 0.1563
[2]; Subject B glioma max.
  Patlak Ic (AB) y intercept: 0.4556
  Patlak Ic (PC) y intercept: 0.5434
[2]; Subject B o.t. glioma
  Patlak Ic (AB) y intercept: 0.4687
  Patlak Ic (PC) y intercept: 0.5996
[3]; Subject A brain (control)
  Yokoi K1 (AB) plasma to tissue transport rate: 0.018 mL min-1 mL-1
  Yokoi K1/k2 (AB) binding potential: 0.34 mL mL-1
  Yokoi k2 (AB) tissue to plasma transport rate: 0.054 min⁻¹
  Yokoi K1 (PC) plasma to tissue transport rate: 0.019 mL min-1 mL-1
  Yokoi K1/k2 (PC) binding potential: 0.68 mL mL-1
  Yokoi k2 (PC) tissue to plasma transport rate: 0.028 min⁻¹
[3]; Subject A glioma max.
  Yokoi K1 (AB) plasma to tissue transport rate: 0.120 mL min-1 mL-1
  Yokoi K1/k2 (AB) binding potential: 1.59 mL mL-1
  Yokoi k2 (AB) tissue to plasma transport rate: 0.075 min⁻¹
  Yokoi K1 (PC) plasma to tissue transport rate: 0.121 mL min-1 mL-1
  Yokoi K1/k2 (PC) binding potential: 2.95 mL mL-1
  Yokoi k2 (PC) tissue to plasma transport rate: 0.041 min⁻¹
[3]; Subject A o.t. glioma
  Yokoi K1 (AB) plasma to tissue transport rate: 0.078 mL min-1 mL-1
  Yokoi K1/k2 (AB) binding potential: 1.50 mL mL-1
  Yokoi k2 (AB) tissue to plasma transport rate: 0.052 min⁻¹
  Yokoi K1 (PC) plasma to tissue transport rate: 0.083 mL min-1 mL-1
  Yokoi K1/k2 (PC) binding potential: 2.96 mL mL-1
  Yokoi k2 (PC) tissue to plasma transport rate: 0.028 min⁻¹
[3]; Subject B brain (control)
  Yokoi K1 (AB) plasma to tissue transport rate: 0.015 mL min-1 mL-1
  Yokoi K1/k2 (AB) binding potential: 0.33 mL mL-1
  Yokoi k2 (AB) tissue to plasma transport rate: 0.045 min⁻¹
  Yokoi K1 (PC) plasma to tissue transport rate: 0.015 mL min-1 mL-1
  Yokoi K1/k2 (PC) binding potential: 0.69 mL mL-1
  Yokoi k2 (PC) tissue to plasma transport rate: 0.022 min⁻¹
[3]; Subject B glioma max.
  Yokoi K1 (AB) plasma to tissue transport rate: 0.046 mL min-1 mL-1
  Yokoi K1/k2 (AB) binding potential: 1.29 mL mL-1
  Yokoi k2 (AB) tissue to plasma transport rate: 0.036 min⁻¹
  Yokoi K1 (PC) plasma to tissue transport rate: 0.049 mL min-1 mL-1
  Yokoi K1/k2 (PC) binding potential: 2.79 mL mL-1
  Yokoi k2 (PC) tissue to plasma transport rate: 0.017 min⁻¹
[3]; Subject B o.t. glioma
  Yokoi K1 (AB) plasma to tissue transport rate: 0.045 mL min-1 mL-1
  Yokoi K1/k2 (AB) binding potential: 0.99 mL mL-1
  Yokoi k2 (AB) tissue to plasma transport rate: 0.046 min⁻¹
  Yokoi K1 (PC) plasma to tissue transport rate: 0.047 mL min-1 mL-1
  Yokoi K1/k2 (PC) binding potential: 1.96 mL mL-1
  Yokoi k2 (PC) tissue to plasma transport rate: 0.024 min⁻¹
[4]; [5]
  2-Compartment K1: 0.015 mL min-1 mL-1
  2-Compartment K1/k2: 0.143 mL mL-1
  2-Compartment Vb: 7.82%
  2-Compartment k3: 0.032 min⁻¹
  2-Compartment k3*K1/k2: 0.005
  2-Compartment k3/(k2+k3): 0.235
[4]; [6]
  2-Compartment K1: 0.016 mL min-1 mL-1
  2-Compartment K1/k2: 0.210 mL mL-1
  2-Compartment Vb: 7.77%
  2-Compartment k3: 0.051 min⁻¹
  2-Compartment k3*K1/k2: 0.011
  2-Compartment k3/(k2+k3): 0.396
[4]; [7]
  2-Compartment K1: 0.149 mL min-1 mL-1
  2-Compartment K1/k2: 1.169 mL mL-1
  2-Compartment Vb: 20%
  2-Compartment k3: 0.015 min⁻¹
  2-Compartment k3*K1/k2: 0.018
  2-Compartment k3/(k2+k3): 0.105
[4]; [8]
  2-Compartment K1: 0.156 mL min-1 mL-1
  2-Compartment K1/k2: 1.769 mL mL-1
  2-Compartment Vb: 20%
  2-Compartment k3: 0.023 min⁻¹
  2-Compartment k3*K1/k2: 0.041
  2-Compartment k3/(k2+k3): 0.208
[4]; [9]
  2-Compartment K1: 0.116 mL min-1 mL-1
  2-Compartment K1/k2: 0.919 mL mL-1
  2-Compartment Vb: 11.5%
  2-Compartment k3: 0.018 min⁻¹
  2-Compartment k3*K1/k2: 0.016
  2-Compartment k3/(k2+k3): 0.122
[4]; [10]
  2-Compartment K1: 0.123 mL min-1 mL-1
  2-Compartment K1/k2: 1.373 mL mL-1
  2-Compartment Vb: 11.6%
  2-Compartment k3: 0.027 min⁻¹
  2-Compartment k3*K1/k2: 0.038
  2-Compartment k3/(k2+k3): 0.234
[4]; [11]
  2-Compartment K1: 0.017 mL min-1 mL-1
  2-Compartment K1/k2: 0.127 mL mL-1
  2-Compartment Vb: 5.5%
  2-Compartment k3: 0.031 min⁻¹
  2-Compartment k3*K1/k2: 0.004
  2-Compartment k3/(k2+k3): 0.186
[4]; [12]
  2-Compartment K1: 0.018 mL min-1 mL-1
  2-Compartment K1/k2: 0.168 mL mL-1
  2-Compartment Vb: 5.52%
  2-Compartment k3: 0.051 min⁻¹
  2-Compartment k3*K1/k2: 0.009
  2-Compartment k3/(k2+k3): 0.318
[4]; [13]
  2-Compartment K1: 0.102 mL min-1 mL-1
  2-Compartment K1/k2: 0.447 mL mL-1
  2-Compartment Vb: 13.3%
  2-Compartment k3: 0.036 min⁻¹
  2-Compartment k3*K1/k2: 0.016
  2-Compartment k3/(k2+k3): 0.137
[4]; [14]
  2-Compartment K1: 0.111 mL min-1 mL-1
  2-Compartment K1/k2: 0.515 mL mL-1
  2-Compartment Vb: 13.4%
  2-Compartment k3: 0.062 min⁻¹
  2-Compartment k3*K1/k2: 0.032
  2-Compartment k3/(k2+k3): 0.224
[4]; [15]
  2-Compartment K1: 0.061 mL min-1 mL-1
  2-Compartment K1/k2: 0.536 mL mL-1
  2-Compartment Vb: 10.2%
  2-Compartment k3: 0.020 min⁻¹
  2-Compartment k3*K1/k2: 0.011
  2-Compartment k3/(k2+k3): 0.150
[4]; [16]
  2-Compartment K1: 0.063 mL min-1 mL-1
  2-Compartment K1/k2: 0.767 mL mL-1
  2-Compartment Vb: 10.5%
  2-Compartment k3: 0.032 min⁻¹
  2-Compartment k3*K1/k2: 0.025
  2-Compartment k3/(k2+k3): 0.280
